Target: T1, mouse UV cone opsin (Mus musculus, UniProt P51491)
T1 construct: gene Opn1sw; pMT-2 vector, COS-1 cell membranes; transducin from bovine retina as read-out
T1 sequence (P51491 1-346): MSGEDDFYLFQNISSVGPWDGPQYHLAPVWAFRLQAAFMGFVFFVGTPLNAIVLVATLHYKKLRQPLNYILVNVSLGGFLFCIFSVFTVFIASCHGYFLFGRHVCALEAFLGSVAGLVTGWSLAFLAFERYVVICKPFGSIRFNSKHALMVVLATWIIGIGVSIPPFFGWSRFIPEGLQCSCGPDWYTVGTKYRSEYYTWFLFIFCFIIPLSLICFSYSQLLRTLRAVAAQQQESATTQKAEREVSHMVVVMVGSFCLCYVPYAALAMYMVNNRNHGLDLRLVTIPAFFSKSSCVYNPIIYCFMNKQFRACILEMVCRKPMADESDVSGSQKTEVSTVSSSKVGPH
Assay: transducin activation, radioactive GTPgammaS35 filter-binding assay
Type: biochemical
Conditions: agonist, 20 or 200 µM; COS-1 membranes, bovine transducin 2.5 µM, 3 µM GTPgammaS, pH 6.4, 50 mM MgCl2, dim red light

Structure (SMILES): CC1=C(/C=C/C(C)=C/C=C/C(C)=C/C(=O)O)C(C)(C)CCC1 [all-trans retinoic acid]
- transducin activation, radioactive GTPgammaS35 filter-binding assay: RA, on the other hand, did increase mouse UV-opsin activity significantly
